The target in one experiment is BCL6 BTB domain (Homo sapiens (Human), UniProt P41182). The experiment can be described thus: Surface plasmon resonance (SPR) assay. The format is binding. Conditions: BCL6 BTB domain captured on SA chip, single cycle kinetics. On the technique in general: In SPR one partner is held on a chip, and binding of the other changes the refractive index at the surface.
Another experiment concerns Karpas422 cells. The experiment can be described thus: Tumor cell growth inhibition assay. The class given is cell-based. The settings on record: for IC50: Homo sapiens, KARPAS-422, 144 h, read-out: Tumor Growth Inhibition in Karpas-422 (IC50, uM), Karpas422 cells, six days, ATPlite. The essentials:
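Growth inhibition was measured by ATPlite luminescence after six days of culture at 37° C. in 5% CO2. Karpas422 cells were seeded at 2,000 per well in Alpha-MEM plus 10% FBS. Compounds were given as a 10-point concentration series with a highest dose of 5 uM.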
(In general: Cellular ATP, detected with luciferase, serves as a proxy for viable cell number.)

The subject of experiment [1] is BCL6 reporter construct (3xBCL6-TK-Luc) in SuDHL4 cells. The experiment can be described thus: Cell-based luciferase assay. The settings on record: for EC50: Homo sapiens, SU-DHL-4, 48 h, read-out: Luciferase-Assay EC50, uM), SuDHL4-3xBCL6-TK-Luc cells, two days, high dose 10 uM. The essentials:
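SuDHL4 cells stably carrying a 3×BCL6-site TK-promoter firefly luciferase reporter, seeded at 15,000 cells/well, were dosed over a 10-point range (top 10 uM) and grown two days at 37 °C, 5% CO2. Luminescence then read after adding neolite reagent at room temperature.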

pEC50, pIC50, pKd: −log10 of the molar value. Where two headings read alike, the source gives them in different places.

As a reminder, the pKd is the negative decadic logarithm of the Kd, by convention in mol/L. The low end stands for a high Kd, the high end for a low Kd. As a reminder, the IC50 is the concentration that inhibits the measured activity by half. A word on the EC50: it is the concentration needed to bring the measured effect to its halfway point. The compound `CN1CCOC2CN(c3cc(NC(=O)Cn4cc(-c5cc(Cl)c(O)c(C(N)=O)c5)c5c(=O)n(C)cnc54)c(Cl)cn3)CC21` (stereo not drawn) [Compound I-329] gave a pKd on BCL6 BTB domain of 7.87. Moreover, the half-inhibitory concentration (IC50) in the experiment with Karpas422 cells was found to be 0.173 µM. In addition, the EC50 in experiment [1] was 0.345 µM.
On the same counts, the results for `Cc1nc2cc(Cl)c(NC(=O)Cn3cc(-c4cc(F)c(O)c(C(N)=O)c4)c4c(=O)n(C)cnc43)cc2o1` [Compound I-159] are 7.32, 0.282 µM and 0.282 µM.
On the same counts, the results for `C[C@@H]1COC[C@H](C)N1c1cc(NC(=O)Cn2cc(-c3cc(Cl)c(O)c(C(N)=O)c3)c3c(=O)n(C)cnc32)c(Cl)cn1` [Compound I-264] are 7.52, 0.376 µM and 0.347 µM.
The corresponding values for `C[C@H]1COCCN1c1cc(NC(=O)Cn2cc(-c3cc(F)c(O)c(C(N)=O)c3)c3c(=O)n(CC#Cc4cnn(C)c4)cnc32)c(Cl)cn1` [Compound I-457] are 7.88, 0.183 µM and 0.328 µM.
A word on the pIC50: it is the negative decadic logarithm of the IC50, by convention in mol/L. A word on the pEC50: it is the negative decadic logarithm of the EC50, by convention in mol/L. `Cn1cnc2c(c(-c3cc(Cl)c(O)c(C(N)=O)c3)cn2CC(=O)Nc2cc(N3CCOC(C(F)(F)F)C3)ncc2Cl)c1=O` (stereo not drawn) [Compound I-256] gave a negative-log Kd (pKd) at BCL6 BTB domain of 6.68. Moreover, the negative logarithm of the IC50 (pIC50) in the experiment on Karpas422 cells (read-out: Tumor Growth Inhibition in Karpas-422 (IC50), Karpas422 cells, six days, ATPlite) was 6.56. Moreover, the pEC50 in experiment [1] (read-out: Luciferase-Assay EC50, SuDHL4-3xBCL6-TK-Luc cells, two days, high dose 10 uM) was 6.29.
For the compound `Cn1cnc2c(c(-c3cc(Cl)c(O)c(C(N)=O)c3)cn2CC(=O)Nc2c(F)c(F)nc(F)c2Cl)c1=O` [Compound I-210], the pKd on BCL6 BTB domain is 5.96. For the same compound, the IC50 in the experiment on Karpas422 cells was determined as 6.16 µM. Also, in experiment [1], the EC50 was 14.9 µM.
On the same counts, the results for `COc1ncc(Cl)c(NC(=O)Cn2cc(-c3cc(C(N)=O)c(O)c(F)c3F)c3c(=O)n(C)c(C)nc32)c1F` [Compound I-381] are 6.62, 10 µM and 10 µM.
The corresponding values for `CC1N=CC(C#CCn2cnc3c(c(-c4cc(C(N)=O)c(O)c(F)c4F)cn3CC(=O)Nc3cc(N4CCN(C)C[C@@H]4C)nc(F)c3Cl)c2=O)=N1` (stereo partly drawn) [Compound I-456] are 8.73, 0.0554 µM and 0.0858 µM.
On the same counts, the results for `C[C@H]1CN(CC2CC2)CCN1c1cc(NC(=O)Cn2cc(-c3cc(Cl)c(O)c(C(N)=O)c3)c3c(=O)n(C)cnc32)c(Cl)cn1` [Compound I-301] are 7.71, 0.252 µM and 0.21 µM.
At BCL6 BTB domain, `Cn1cnc2c(c(-c3cc(Cl)c(O)c(C(N)=O)c3)cn2CC(=O)Nc2cc(N3CCN4CCOCC4C3)ncc2Cl)c1=O` (stereo not drawn) [Compound I-75] gave a pKd of 8.10. The IC50 in the experiment with Karpas422 cells is 0.099 µM. The EC50 in experiment [1] is 0.132 µM.
The corresponding values for `CN1CCC2CN(c3cc(NC(=O)Cn4cc(-c5cc(F)c(O)c(C(N)=O)c5)c5c(=O)n(C)cnc54)c(Cl)cn3)CC21` (stereo not drawn) [Compound I-276] are 7.48, 0.355 µM and 1.1 µM.
The corresponding values for `Cn1cnc2c(c(-c3cc(Cl)c(O)c(C(N)=O)c3)cn2CC(=O)Nc2cc(N3CCOCC3)c(F)cc2Cl)c1=O` [Compound I-195] are 6.71, 1.08 µM and 1.5 µM.
The corresponding values for `Cc1cc(NC(=O)Cn2cc(-c3cc(C(N)=O)c(O)c(F)c3F)c3c(=O)n(C)cnc32)c(Cl)cn1` [Compound I-333] are 6.84, 4.21 µM and 2.42 µM.
On BCL6 BTB domain, `Cn1cnc2c(c(-c3cc(F)c(O)c(C(N)=O)c3)cn2CC(=O)Nc2cc(N3C[C@H]4CCO[C@H]4C3)ncc2Cl)c1=O` [Compound I-158] showed a pKd of 8.75. In addition, in the experiment on Karpas422 cells, the 50% inhibitory concentration (IC50) was 0.249 µM. Also, in experiment [1], the concentration for a half-maximal effect (EC50) came out at 1.01 µM.
In the case of `Cn1cnc2c(c(-c3cc(Cl)c(O)c(C(N)=O)c3)cn2CC(=O)Nc2cc(N3CC4CCC3C4)ncc2Cl)c1=O` (stereo not drawn) [Compound I-126], the pKd on BCL6 BTB domain is 7.41. Besides, the IC50 in the experiment on Karpas422 cells came out at 0.268 µM. For the same compound, in experiment [1], the concentration for a half-maximal effect (EC50) came out at 2.85 µM.
